Test results: paper PMC10779950, “Binding Free Energy Calculation Based on the Fragment Molecular Orbital Method and Its Application in Designing Novel SHP-2 Allosteric Inhibitors” (International Journal of Molecular Sciences, 2024)
Read-outs that look alike come from different tables or passages of the source.

What was measured:
[1] = molecular target: T1, SHP2^WT (1–593) (Homo sapiens, UniProt Q06124); experiment: SHP-2 prompt fluorescence phosphatase assay (DiFMUP), SHP2^WT; type: biochemical; design: ΔG experiment: unit not given here; conditions: for pIC50: from experimental IC50; for ΔG experiment: experimental binding free energy converted from IC50; for ΔGexp: converted from IC50 with ΔGexp ≈ kBTlog IC50
T1 construct: made in house; host or cells: E. coli BL21 Star (DE3), pET30 vector
T1 sequence (Q06124 1-593): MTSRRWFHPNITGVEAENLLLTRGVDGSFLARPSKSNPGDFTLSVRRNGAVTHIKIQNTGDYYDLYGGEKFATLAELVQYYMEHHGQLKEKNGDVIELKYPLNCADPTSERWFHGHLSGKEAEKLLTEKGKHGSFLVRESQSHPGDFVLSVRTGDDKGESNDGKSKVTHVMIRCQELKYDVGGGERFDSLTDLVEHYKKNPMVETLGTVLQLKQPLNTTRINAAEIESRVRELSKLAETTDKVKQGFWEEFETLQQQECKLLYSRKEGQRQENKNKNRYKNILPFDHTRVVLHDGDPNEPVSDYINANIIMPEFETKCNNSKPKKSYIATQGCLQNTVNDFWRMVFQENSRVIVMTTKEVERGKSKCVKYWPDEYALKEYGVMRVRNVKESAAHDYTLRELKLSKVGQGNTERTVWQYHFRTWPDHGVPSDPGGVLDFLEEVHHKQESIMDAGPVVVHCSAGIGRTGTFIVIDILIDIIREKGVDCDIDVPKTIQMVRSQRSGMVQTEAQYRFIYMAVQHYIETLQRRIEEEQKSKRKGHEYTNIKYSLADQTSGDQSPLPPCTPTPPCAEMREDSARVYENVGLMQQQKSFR
Experimental: Briefly, the constructs were transformed into BL21 Star^TM (DE3) cells and cultured at 37 °C for 3~4 h. Subsequently, the cells with high expression of SHP2 protein were harvested after being induced by IPTG and grown overnight at 18 °C. Cell pellets were resuspended in lysis buffer (25 mM imidazole, 50 mM Tris−HCl, 500 mM NaCl, 2.5 mM MgCl2, 1 mM tris(2-carboxyethyl)phosphine (TCEP), 1 μg/mL DNase1, and complete EDTA-free protease inhibitor) and lysed using Low Temperature Ultrahigh Pressure Continuous Flow Cell Disrupter (JNBIO), followed by ultracentrifugation. The supernatant was collected. Then, the SHP2 was purified from the collected supernatant by using HisTrap HP chelation column, TEV protease, and HiTrap Q FastFlow column.
Then, the mixture was then incubated at 25 °C for 60 min. To initiate the reaction, the surrogate substrate DiFMUP (Invitrogen, cat. no. D6567, Shuzhou, China, 200 μM) was added and incubated at 25 °C for another 30 min. […] Fluorescence signal was detected using a microplate reader (Bio-Tek, Shanghai, China, Synergy2) at Ex/Em = 340/450 nm. Using control-based normalization, normalized IC50 regression curves were fitted to inhibitor dose response curves.

[2] = test system: c-Met; design: method as in earlier work; conditions: Schrödinger FEP+ benchmark; cited from earlier work
[3] = test system: SYK; design: method as in Schrödinger FEP+ benchmark; conditions: FEP+ predicted binding free energy, ref Schrödinger FEP+ benchmark; cited from earlier work
[4] = test system: SYK; conditions: experimental binding free energy, ref Schrödinger FEP+ benchmark; cited from earlier work
[5] = test system: THR-β; experiment: Experimental THR-β activity of agonists taken from Hu et al.; type: biochemical; conditions: Table S4, converted from the experimental value
Description: In the initial phase of our investigation, we conducted a retrospective evaluation of FMOScore’s performance concerning thyroid hormone receptor β (THR-β) agonists, using a set of 18 compounds taken from the work of Hu et al. [65]

[6] = test system: c-Met; design: method as in earlier work; conditions: FEP+ predicted ΔG from the benchmark; cited from earlier work
[7] = test system: Eg5; conditions: experimental binding free energy, ref Schrödinger FEP+ benchmark; cited from earlier work
[8] = SHP-2_case sheet, designed SHP-2 inhibitors, read-out: IC50uM
[9] = SHP-2_case sheet, same IC50 restated in another unit, read-out: IC50nM
[10] = SHP2^WT, DiFMUP substrate, averages of three independent experiments, read-out: SHP-2 IC50

SMILES: Nc1cc(NCC2CCCNC2)cnc1-c1cccc(Cl)c1Cl (centres unmarked) [A-S2]
- IC50 [1, 8]: 15.6 µM
- pIC50 ([1]; SHP-2_case sheet): 4.8066
- IC50 [1, 9]: 15.6 µM
- ΔG experiment [1]: -6.554

SMILES: Nc1cc(NC2CCNC2)cnc1-c1cccc(Cl)c1Cl (centres unmarked) [Compound 3, 2-(2,3-dichlorophenyl)-N5-(pyrrolidin-3-yl) pyridine-3,5-diamine]
- Exp. ΔG [2]: -7.46 kcal/mol
- FEP [3]: -6.76 kcal/mol
- Exp. ΔG [4]: -8.64 kcal/mol
- ΔGexp [5]: -8.435 kcal/mol
- FEP [6]: -5.97 kcal/mol
- IC50 [1, 10]: 5.17 ± 1.08 µM
- ΔGexp [1]: -7.207 kcal/mol

SMILES: CN(C)CCNC(=O)NC[C@H]1CC[C@@H]2[C@H](O1)c1cc(C(F)(F)F)ccc1N[C@H]2c1ccccc1 [CHEMBL1077204]
- Exp. ΔG [7]: -11.05 kcal/mol

SMILES: CC(C)(C)c1ccc2c(c1)[C@H]1OCCC[C@H]1[C@H](c1ccc(O)c(F)c1)N2 [CHEMBL1078774]
- Exp. ΔG [7]: -10.6 kcal/mol

SMILES: CNC[C@H]1CC[C@@H]2[C@H](O1)c1cc(C(F)(F)F)ccc1N[C@H]2c1ccc(F)cc1 [CHEMBL1086409]
- Exp. ΔG [7]: -9.87 kcal/mol

SMILES: Nc1cc(NC2CCNCC2)cnc1-c1cccc(Cl)c1Cl [Compound 4, 2-(2,3-dichlorophenyl)-N5-(piperidin-4-yl) pyridine-3,5-diamine]
- Exp. ΔG [2]: -8.9 kcal/mol
- FEP [3]: -9.49 kcal/mol
- Exp. ΔG [4]: -11.36 kcal/mol
- ΔGexp [5]: -5.453 kcal/mol
- FEP [6]: -7.41 kcal/mol
- IC50 [1, 10]: 23.5 ± 2.86 µM
- ΔGexp [1]: -6.311 kcal/mol
- fold reduced inhibition on morphing the piperazine ring (relative to compound 1) ([1]; ratio of IC50): 15 fold

SMILES: CC1(N)CCN(c2cnc(-c3cccc(Cl)c3Cl)c(N)c2)CC1 [A-S1]
- IC50 [1, 8]: 1.49 µM
- pIC50 ([1]; SHP-2_case sheet): 5.826
- IC50 [1, 9]: 1.49 µM
- ΔG experiment [1]: -7.943

SMILES: CNC[C@H]1CC[C@@H]2[C@H](O1)c1cc(Br)cc(F)c1N[C@H]2c1ccccc1 [CHEMBL1082248]
- Exp. ΔG [7]: -11.63 kcal/mol

SMILES: CNC[C@H]1CC[C@@H]2[C@H](O1)c1cc(C(C)(C)C)ccc1N[C@H]2c1ccccc1 [CHEMBL1086410]
- Exp. ΔG [7]: -11.46 kcal/mol

SMILES: CN(C[C@H]1CC[C@@H]2[C@H](O1)c1cc(C(F)(F)F)ccc1N[C@H]2c1ccccc1)S(=O)(=O)CCCN [CHEMBL1084678]
- Exp. ΔG [7]: -11.13 kcal/mol

SMILES: NCCN(C[C@H]1CC[C@@H]2[C@H](O1)c1cc(C(F)(F)F)ccc1N[C@H]2c1ccccc1)c1ccccc1 [CHEMBL1093087]
- Exp. ΔG [7]: -10.53 kcal/mol

SMILES: CC1(N)CCN(c2cnc(-c3cccc(F)c3Cl)c(N)c2)CC1 [A-S5]
- IC50 [1, 8]: 15.1 µM
- pIC50 ([1]; SHP-2_case sheet): 4.821
- IC50 [1, 9]: 15.1 µM
- ΔG experiment [1]: -6.573

SMILES: CC(C)(C)c1ccc2c(c1)[C@H]1OCCC[C@H]1[C@H](c1cccs1)N2 [CHEMBL1078998]
- Exp. ΔG [7]: -10.37 kcal/mol

SMILES: Cc1ccc(C(=O)N(CCN)C[C@H]2CC[C@@H]3[C@H](O2)c2cc(C(F)(F)F)ccc2N[C@H]3c2ccccc2)cc1 [CHEMBL1084431]
- Exp. ΔG [7]: -9.8 kcal/mol

SMILES: OCCNC[C@H]1CC[C@@H]2[C@H](O1)c1cc(Cl)cc(F)c1N[C@H]2c1ccccc1 [CHEMBL1096002]
- Exp. ΔG [7]: -11.13 kcal/mol

SMILES: FC(F)(F)c1ccc2c(c1)[C@H]1O[C@@H](Cn3cncn3)CC[C@H]1[C@H](c1ccccc1)N2 [CHEMBL1093088]
- Exp. ΔG [7]: -11.22 kcal/mol

SMILES: CCN(CCO)C[C@H]1CC[C@@H]2[C@H](O1)c1cc(C(C)(C)C)ccc1N[C@H]2c1ccccc1 [CHEMBL1084935]
- Exp. ΔG [7]: -10.53 kcal/mol

SMILES: CNC[C@H]1CC[C@@H]2[C@H](O1)c1cc(C3CC3)ccc1N[C@H]2c1ccccc1 [CHEMBL1083836]
- Exp. ΔG [7]: -10.86 kcal/mol

SMILES: NC[C@H]1CC[C@@H]2[C@H](O1)c1cc(C(F)(F)F)ccc1N[C@H]2c1ccccc1 [CHEMBL1085666]
- Exp. ΔG [7]: -10.5 kcal/mol

SMILES: CC1(N)CCN(c2cnc(Sc3cccc(Cl)c3Cl)c(N)c2)CC1 [A-S7]
- IC50 [1, 8]: 11.2 µM
- pIC50 ([1]; SHP-2_case sheet): 4.949
- IC50 [1, 9]: 11.2 µM
- ΔG experiment [1]: -6.748

SMILES: CNC[C@H]1CC[C@@H]2[C@H](O1)c1cc(C(C)(C)C)ccc1N[C@H]2c1cccs1 [CHEMBL1077227]
- Exp. ΔG [7]: -11.32 kcal/mol

SMILES: CN(C)CCS(=O)(=O)NC[C@H]1CC[C@@H]2[C@H](O1)c1cc(Cl)cc(F)c1N[C@H]2c1ccccc1 [CHEMBL1096003]
- Exp. ΔG [7]: -11.87 kcal/mol

SMILES: Nc1cc(NC2CCNCC2)cnc1-c1cccc(Cl)c1Cl [A-S4]
- IC50 [1, 8]: 23.5 µM
- pIC50 ([1]; SHP-2_case sheet): 4.629
- IC50 [1, 9]: 23.5 µM
- ΔG experiment [1]: -6.312

SMILES: CNC[C@H]1CC[C@@H]2[C@H](O1)c1cc(C(F)(F)F)ccc1N[C@H]2c1ccc(O)cc1 [CHEMBL1083517]
- Exp. ΔG [7]: -11.46 kcal/mol

SMILES: CC(C)(C)c1ccc2c(c1)[C@H]1OCCC[C@H]1[C@H](c1ccc(O)cc1)N2 [CHEMBL1078691]
- Exp. ΔG [7]: -10.19 kcal/mol

SMILES: Cc1ccc2c(c1)[C@H]1OCCC[C@H]1[C@H](c1ccccc1)N2 [CHEMBL1088740]
- Exp. ΔG [7]: -8.7 kcal/mol

SMILES: CC(C)c1ccc2c(c1)[C@H]1O[C@@H](CNS(=O)(=O)CCCN(C)C)CC[C@H]1[C@H](c1ccccc1)N2 [CHEMBL1084143]
- Exp. ΔG [7]: -11.87 kcal/mol

SMILES: CC1(N)CCN(c2cnc(-c3ccnc(Cl)c3Cl)c(N)c2)CC1 [A-S6]
- IC50 [1, 8]: 10.7 µM
- pIC50 ([1]; SHP-2_case sheet): 4.973
- IC50 [1, 9]: 10.7 µM
- ΔG experiment [1]: -6.78

SMILES: CC1(N)CCN(c2cnc(-c3cccc(F)c3Cl)c(N)c2)CC1 [Compound 5, 5-(4-amino-4-methylpiperidin-1-yl)-2-(2-chloro-3-fluorophenyl) pyridin-3-amine]
- Exp. ΔG [2]: -9.14 kcal/mol
- ΔGexp [5]: -5.453 kcal/mol
- FEP [6]: -8.31 kcal/mol
- IC50 [1, 10]: 15.1 ± 0.8 µM
- ΔGexp [1]: -6.573 kcal/mol

SMILES: CN(C)CCCC(=O)NC[C@H]1CC[C@@H]2[C@H](O1)c1cc(Br)cc(F)c1N[C@H]2c1ccccc1 [CHEMBL1085692]
- Exp. ΔG [7]: -11.32 kcal/mol

SMILES: Clc1ccc2c(c1)[C@H]1OCCC[C@H]1[C@H](c1ccccc1)N2 [CHEMBL1089393]
- Exp. ΔG [7]: -8.38 kcal/mol

SMILES: CN(C)CCOC(=O)NC[C@H]1CC[C@@H]2[C@H](O1)c1cc(C(F)(F)F)ccc1N[C@H]2c1ccccc1 [CHEMBL1084676]
- Exp. ΔG [7]: -10.71 kcal/mol

SMILES: Nc1cc(N2CCC3(CCCC3N)CC2)cnc1Sc1cccc(Cl)c1Cl (centres unmarked) [A-S8]
- IC50 [1, 8]: 2.29 µM
- pIC50 ([1]; SHP-2_case sheet): 5.64
- IC50 [1, 9]: 2.29 µM
- ΔG experiment [1]: -7.69

SMILES: CC(=O)NCCNC[C@H]1CC[C@@H]2[C@H](O1)c1cc(Br)cc(F)c1N[C@H]2c1ccccc1 [CHEMBL1082249]
- Exp. ΔG [7]: -11.22 kcal/mol

SMILES: CC1(N)CCN(c2cnc(-c3ccnc(Cl)c3Cl)c(N)c2)CC1 [Compound 6, 5-(4-amino-4-methylpiperidin-1-yl)-2′,3′-dichloro-[2,4′-bipyridin]-3-amine]
- Exp. ΔG [2]: -12.28 kcal/mol
- FEP [3]: -9.59 kcal/mol
- Exp. ΔG [4]: -11.69 kcal/mol
- ΔGexp [5]: -10.257 kcal/mol
- FEP [6]: -12.22 kcal/mol
- IC50 [1, 10]: 10.7 ± 0.92 µM
- ΔGexp [1]: -6.780 kcal/mol

SMILES: CC(C)(C)c1ccc2c(c1)[C@H]1OCCC[C@H]1[C@H](c1ccccc1)N2 [CHEMBL1089056]
- Exp. ΔG [7]: -9.44 kcal/mol

SMILES: CNCCS(=O)(=O)NC[C@H]1CC[C@@H]2[C@H](O1)c1cc(C(F)(F)F)ccc1N[C@H]2c1ccccc1 [CHEMBL1084677]
- Exp. ΔG [7]: -11.46 kcal/mol

SMILES: Nc1cc(NC2CCNC2)cnc1-c1cccc(Cl)c1Cl (centres unmarked) [A-S3]
- IC50 [1, 8]: 5.17 µM
- pIC50 ([1]; SHP-2_case sheet): 5.286
- IC50 [1, 9]: 5.17 µM
- ΔG experiment [1]: -7.208

SMILES: CC(C)(C)c1ccc2c(c1)[C@H]1OCCC[C@H]1[C@H](c1ccsc1)N2 [CHEMBL1084115]
- Exp. ΔG [7]: -9.44 kcal/mol
